Counter-ions that a name gives are not always drawn.
Assays:
[1] = Influence of plasticiser type on the MFFT of Surelease dispersion; assay type: physicochemical; conditions: plasticiser added by high-shear mixing
Procedure: (§1) Two different methods were used to evaluate the influence of plasticiser type, quantity and incorporation technique on the MFFT on Surelease® EA7100 and Aquacoat® ECD30. The minimum film-forming temperature (MFFT) is the lowest temperature at which the film-forming composition solidifies to form a film.
(§2) The first was by pouring the dispersions onto glass petri dishes. These dispersions were dried at ambient temperature (15-25° C.) in Class 2 cleanroom environment and inspected visually. They referred to the plasticisation level needed to form films at 20±5° C. The same numerical grading system was used to evaluate the mixed films of examples 2 to 4.
(§3) The second method determined the specific MFFT for each formulation. A MFFT bar was used. The hot water bath on one end of the MFFT bar was set at 46±1° C. and the cold water bath on the other end was set at 3±1° C. This created a temperature gradient of 32.5±1.0° C. to 12±1.0° C. across the spreading surface. The temperature gradient across the MFFT bar was allowed to equilibrate for at least two hours prior to use. The temperatures were measured at the beginning and at the end of each experiment using a Jenway 3070 digital-display thermometer. The apparatus was levelled using the adjustable support and a spirit level. The plasticised dispersion formulations were spread across the surface. Once spread, the film was allowed to form at room humidity. After the film had dried, the lowest temperature on the bar at which the film was still continuous was taken as the MFFT. If the film became discontinuous in between two temperature sampling points then the higher of the two sampled temperatures was taken to be the MFFT. All experiments were duplicated. The reported MFFT was an average of the four temperatures taken at the beginning and at the end of each duplicate experiment.
(§4) In the third technique, the required amount of plasticiser, Tween 80™ and the pseudolatex were mixed with a high speed Silverson homogeniser mixer for 3 minutes. The additional plasticiser content of compositions comprising Surelease® has between 0 and 12% by weight of the ethyl cellulose solids. For compositions comprising Aquacoat®, plasticiser contents of between 18 and 30% by weight of the ethyl cellulose solids were investigated. In all cases Tween 80™ was present in an amount of 0.01% by weight of the dispersion. The formulations were left overnight in sealed containers. Any formulations that remained foamy after overnight storage were not investigated further. Otherwise, the formulations were evaluated on the MFFT apparatus. The plasticisers used were dibutyl sebacate, triethyl citrate, triacetin, acetyl tributyl citrate, tributyl citrate, polypropylene glycol, glycerol and polyethylene glycol 400.

[2] = Influence of plasticiser type on the MFFT of Aquacoat dispersion; assay type: physicochemical; conditions: plasticiser added as emulsion
Procedure: as §1, §2, §3, §4
In the final technique, Tween 80, the plasticiser and water were premixed into a crude emulsion prior to addition to ethyl cellulose coating dispersions. A plasticiser emulsion was formed by mixing parts of plasticiser and water with 0.1% of Tween 80™ using a Silverson homogeniser mixer. The freshly mixed plasticiser emulsion was then added to the ethyl cellulose coating dispersion by magnetic stirring for 30 minutes. […] Only Aquacoat® ECD30 formulations were investigated. Aquacoat® ECD30 was plasticised with dibutyl sebacate, triethyl citrate, triacetin, acetyl tributyl citrate, tributyl citrate, polypropylene glycol, glycerol and polyethylene glycol 400. The basic formulations comprise between 18 and 36% of plasticiser by weight of solids in the dispersion and 0.1% w/w Tween 80.

| SMILES | Lowering of the MFFT of Surelease® [1] | Lowering of the MFFT of Aquacoat® [2] |
| --- | --- | --- |
| CCCCOC(=O)CC(CC(=O)OCCCC)(OC(C)=O)C(=O)OCCCC [acetyl tributyl citrate] | successful in lowering the MFFT | successful in lowering the MFFT |
| OCC(O)CO [glycerol] | unsuccessful | unsuccessful |
| CCOC(=O)CC(O)(CC(=O)OCC)C(=O)OCC [triethyl citrate] |  | lowering the MFFT |
| CCCCOC(=O)CC(O)(CC(=O)OCCCC)C(=O)OCCCC [tributyl citrate] | successful in lowering the MFFT | successful in lowering the MFFT |
| CCCCOC(=O)CCCCCCCCC(=O)OCCCC [dibutyl sebacate] | successful in lowering the MFFT | successful in lowering the MFFT |
| CC(=O)OCC(COC(C)=O)OC(C)=O [triacetin] |  | lowering the MFFT |

Reference: patent publication US6743445B2, “Low temperature coatings” (BTG International Limited, priority 1998, dated 2004)
